Experiments:
MIF = target: T1, MIF (Homo sapiens, UniProt P14174); assay: Nuclease assay of Example 3 (MIF inhibitory activity, Table 4); type: biochemical; set-up: (%) inhibition of MIF nuclease activity: concentration or dose not given beside the values; settings: for (%) inhibition of MIF nuclease activity: nuclease assay of Example 3
T1 sequence (P14174 1-115): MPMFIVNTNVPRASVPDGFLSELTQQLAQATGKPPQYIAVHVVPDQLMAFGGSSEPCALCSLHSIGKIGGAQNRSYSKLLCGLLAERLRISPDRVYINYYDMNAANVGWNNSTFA
In short: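 Human genomic DNA (200 ng), pcDNA (200 ng) or PS^30-type substrates (1 μM) were incubated with MIF (0.25-8 μM final) in 10 mM Tris-HCl pH 7.0, 10 mM MgCl2, 1 mM DTT at 37 °C for 1 h (pcDNA, small substrates) or 4 h (genomic DNA). Cleavage was assessed by agarose or PAGE electrophoresis with EtBr staining and chemiluminescent detection of biotin-labelled DNA.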

[1] = tested on: HeLa cells or neuronal cells; assay: Cell death assay of Example 3 (MNNG, alamarBlue; protection against parthanatos, Table 4); type: cell-based; settings: 1 μM test compound; for (%) inhibition of cell death: MNNG-induced cell death, alamarBlue
In short: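 HeLa or neuronal cells (1×10^4/well) were pretreated 1 h at 37° C with 1 μM compound, exposed to MNNG for 15 min, washed, then re-incubated 18 h with 1 μM compound. Viability was read by alamarBlue fluorescence (ex 560/em 590 nm). Cell death was expressed relative to control wells.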

COc1ccc(CC[C@H]2OC(=O)[C@@H]3CCCCN3C(=O)C(=O)C(C)(C)COC(=O)C=CCCN(C)C(=O)[C@H](c3ccccc3)NC(=O)C(C(C)C)N(C)C(=O)[C@@H](Cc3ccccc3)NC(=O)[C@H](CC(C)C)N(C)C(=O)CCC(=O)Nc3cccc2c3)cc1OC (stereo partly drawn) [compound 90]
(%) inhibition of MIF nuclease activity (MIF): 15.8% | (%) inhibition of cell death [1]: 48.5%

COc1cc(F)c(CC[C@H]2OC(=O)[C@@H]3CCCCN3C(=O)C(=O)C(C)(C)COC(=O)C=CCCN(C)C(=O)[C@@H]3CCCN3C(=O)[C@H](COC(C)(C)C)N(C)C(=O)C(c3ccccc3)NC(=O)[C@H](C)N(C)C(=O)COc3cccc2c3)cc1OC (stereo partly drawn) [compound 109]
(%) inhibition of MIF nuclease activity (MIF): 9.3% | (%) inhibition of cell death [1]: 52.9%

COCC[C@@H]1NC(=O)[C@H](Cc2ccccc2)N(C)C(=O)[C@@H](C)NC(=O)CN(C)C(=O)COc2cccc(c2)[C@@H](CCc2ccc(OC)c(OC)c2)OC(=O)[C@@H]2CCCCN2C(=O)C(=O)C(C)(C)COC(=O)C=CCCN(C)C1=O [compound 65]
(%) inhibition of MIF nuclease activity (MIF): 20.1% | (%) inhibition of cell death [1]: 54.4%

COc1ccc(CC[C@H]2OC(=O)[C@@H]3CCCCN3C(=O)C(=O)C(C)(C)COC(=O)C=CCCN(C)C(=O)CNC(=O)[C@H](COC(C)(C)C)N(C)C(=O)C(c3ccccc3)NC(=O)CN(C)C(=O)COc3cccc2c3)cc1OC (stereo partly drawn) [compound 31]
(%) inhibition of MIF nuclease activity (MIF): 22.9% | (%) inhibition of cell death [1]: 52.3%

CCC[C@@H]1NC(=O)[C@H](C(C)C)N(C)C(=O)[C@@H](Cc2ccccc2)NC(=O)[C@H](CC(C)C)N(C)C(=O)CCC(=O)Nc2cccc(c2)[C@@H](CCc2ccc(OC)c(OC)c2)OC(=O)[C@@H]2CCCCN2C(=O)C(=O)C(C)(C)COC(=O)C=CCCN(C)C1=O [compound 79]
(%) inhibition of MIF nuclease activity (MIF): 6.7% | (%) inhibition of cell death [1]: 43.4%

COc1ccc(CC[C@H]2OC(=O)[C@@H]3CCCCN3C(=O)C(=O)C(C)(C)COC(=O)C=CCCN(C)C(=O)[C@H](C(C)C)NC(=O)[C@H](C(C)C)N(C)C(=O)[C@@H](Cc3ccccc3)NC(=O)[C@H](CC(C)C)N(C)C(=O)CCC(=O)Nc3cccc2c3)cc1OC [compound 89]
(%) inhibition of MIF nuclease activity (MIF): 12.6% | (%) inhibition of cell death [1]: 49.9%

COc1cc(CC[C@H]2OC(=O)[C@@H]3CCCCN3C(=O)C(=O)C(C)(C)COC(=O)C=CCCN(C)C(=O)[C@@H]3CCCN3C(=O)[C@H](COC(C)(C)C)N(C)C(=O)C(c3ccccc3)NC(=O)[C@H](C)N(C)C(=O)COc3cccc2c3)cc(O)c1OC (stereo partly drawn) [compound 120]
(%) inhibition of MIF nuclease activity (MIF): 7.1% | (%) inhibition of cell death [1]: 45.8%

COc1ccc(CC[C@H]2OC(=O)[C@@H]3CCCCN3C(=O)C(=O)C(C)(C)COC(=O)C=CCCN(C)C(=O)[C@@H]3CCCN3C(=O)[C@H](COC(C)(C)C)N(C)C(=O)[C@H](Cc3ccccc3)N(C)C(=O)[C@H](C)NC(=O)COc3cccc2c3)cc1OC [compound 138]
(%) inhibition of MIF nuclease activity (MIF): −4.8% | (%) inhibition of cell death [1]: 47.0%

COc1ccc(CC[C@H]2OC(=O)[C@@H]3CCCCN3C(=O)C(=O)C(C)(C)COC(=O)C=CCCN(C)C(=O)[C@@H]3CCCN3C(=O)[C@H](CO)N(C)C(=O)C(c3ccccc3)NC(=O)C(CO)N(C)C(=O)COc3cccc2c3)cc1OC (stereo partly drawn) [compound 108]
(%) inhibition of MIF nuclease activity (MIF): 4.2% | (%) inhibition of cell death [1]: 20.4%

COc1ccc(CC[C@H]2OC(=O)[C@@H]3CCCCN3C(=O)C(=O)C(C)(C)COC(=O)C=CCCN(C)C(=O)[C@H](CC3CCCCC3)NC(=O)[C@H](COC(C)(C)C)N(C)C(=O)[C@@H](Cc3ccc4ccccc4c3)NC(=O)[C@H](C)N(C)C(=O)COc3cccc2c3)cc1OC [compound 27]
(%) inhibition of MIF nuclease activity (MIF): 78.4% | (%) inhibition of cell death [1]: 72.1%

COc1ccc(CC[C@H]2OC(=O)[C@@H]3CCCCN3C(=O)C(=O)C(C)(C)COC(=O)C=CCCN(C)C(=O)CNC(=O)[C@H](Cc3ccccc3)N(C)C(=O)[C@@H](C)NC(=O)CN(C)C(=O)COc3cccc2c3)cc1OC [compound 61]
(%) inhibition of MIF nuclease activity (MIF): 19.2% | (%) inhibition of cell death [1]: 53.8%

CCC[C@@H]1NC(=O)[C@H](COC(C)(C)C)N(C)C(=O)C(c2ccccc2)NC(=O)CN(C)C(=O)COc2cccc(c2)[C@@H](CCc2ccc(OC)c(OC)c2)OC(=O)[C@@H]2CCCCN2C(=O)C(=O)C(C)(C)COC(=O)C=CCCN(C)C1=O (stereo partly drawn) [compound 34]
(%) inhibition of MIF nuclease activity (MIF): 24.2% | (%) inhibition of cell death [1]: 58.4%

COc1ccc(CC[C@H]2OC(=O)[C@@H]3CCCCN3C(=O)C(=O)C(C)(C)COC(=O)C=CCCN(C)C(=O)[C@@H]3CCCN3C(=O)[C@H](COC(C)(C)C)N(C)C(=O)C(c3ccccc3)NC(=O)[C@H](C)N(C)C(=O)COc3cccc2c3F)cc1OC (stereo partly drawn) [compound 125]
MIF nuclease activity (MIF): do not inhibit MIF nuclease activity | (%) inhibition of MIF nuclease activity (MIF): 2.4% | protection against parthanatos (cell death) [1]: protect against parthanatos | (%) inhibition of cell death [1]: 63.4%

COc1ccc(CC[C@H]2OC(=O)[C@@H]3CCCCN3C(=O)C(=O)C(C)(C)COC(=O)C=CCCN(C)C(=O)[C@@H]3CCCN3C(=O)[C@H](Cc3ccccc3)N(C)C(=O)[C@@H](C)NC(=O)CN(C)C(=O)COc3cccc2c3)cc1OC [compound 71]
(%) inhibition of MIF nuclease activity (MIF): 25.3% | (%) inhibition of cell death [1]: 57.0%

COc1cc(CC[C@H]2OC(=O)[C@@H]3CCCCN3C(=O)C(=O)C(C)(C)COC(=O)C=CCCN(C)C(=O)[C@@H]3CCCN3C(=O)[C@H](COC(C)(C)C)N(C)C(=O)C(c3ccccc3)NC(=O)[C@H](C)N(C)C(=O)COc3cccc2c3)c(OC)c(OC)c1 (stereo partly drawn) [compound 113]
(%) inhibition of MIF nuclease activity (MIF): 26.8% | (%) inhibition of cell death [1]: 66.1%

COc1ccc(CC[C@H]2OC(=O)[C@@H]3CCCCN3C(=O)C(=O)C(C)(C)COC(=O)C=CCCN(C)C(=O)[C@H](Cc3ccccc3)NC(=O)[C@H](COC(C)(C)C)N(C)C(=O)[C@@H](CC(C)C)NC(=O)CN(C)C(=O)COc3cccc2c3)cc1OC [compound 8]
(%) inhibition of MIF nuclease activity (MIF): 31.3% | (%) inhibition of cell death [1]: 61.6%

COc1ccc(CC[C@H]2OC(=O)[C@@H]3CCCCN3C(=O)C(=O)C(C)(C)COC(=O)C=CCCN(C)C(=O)[C@H](Cc3ccc4ccccc4c3)NC(=O)[C@H](Cc3ccccc3)N(C)C(=O)[C@@H](C)NC(=O)CN(C)C(=O)COc3cccc2c3)cc1OC [compound 73]
(%) inhibition of MIF nuclease activity (MIF): 40.2% | (%) inhibition of cell death [1]: 53.0%

COc1ccc(CC[C@H]2OC(=O)[C@@H]3CCCCN3C(=O)C(=O)C(C)(C)COC(=O)C=CCCN(C)C(=O)[C@@H]3CCCN3C(=O)[C@H](COC(C)(C)C)N(C)C(=O)C(c3ccccc3)NC(=O)[C@H](Cc3ccccc3)N(C)C(=O)COc3cccc2c3)cc1OC (stereo partly drawn) [compound 145]
(%) inhibition of MIF nuclease activity (MIF): 6.7% | (%) inhibition of cell death [1]: 46.6%

COc1ccc(CC[C@H]2OC(=O)[C@@H]3CCCCN3C(=O)C(=O)C(C)(C)COC(=O)C=CCCN(C)C(=O)[C@H](CC(C)C)NC(=O)[C@H](COC(C)(C)C)N(C)C(=O)[C@@H](CC(C)C)NC(=O)CN(C)C(=O)COc3cccc2c3)cc1OC [compound 6]
(%) inhibition of MIF nuclease activity (MIF): 30.8% | (%) inhibition of cell death [1]: 46.5%

COc1ccc(CC[C@H]2OC(=O)[C@@H]3CCCCN3C(=O)C(=O)C(C)(C)COC(=O)C=CCCN(C)C(=O)[C@H](CC3CCCCC3)NC(=O)[C@H](COC(C)(C)C)N(C)C(=O)C(c3ccccc3)NC(=O)[C@H](C)N(C)C(=O)COc3cccc2c3)cc1OC (stereo partly drawn) [compound 57]
(%) inhibition of MIF nuclease activity (MIF): 18.4% | (%) inhibition of cell death [1]: 59.3%

From patent US20220372014A1, “NEUROPROTECTIVE COMPOUNDS AND METHODS OF USE THEREOF” (The Johns Hopkins University, priority 2019, published 2022)
